How the values were obtained:
[1] = biological target: Cyclin-dependent kinase 1 (Saccharomyces cerevisiae S288c, UniProt P00546); assay: Inhibition of cyclin-dependent kinase activity of Cdc28p/CDK2p in Saccharomyces cerevisiae
[2] = tested on: Saccharomyces cerevisiae; assay: Global transcription profiling experiment to examine the changes in the mRNA levels in the wt laboratory strain treated with the concentration of borrelidin ([…]) that inhibitedcontinued growth of wt yeast; assay type: functional
[3] = tested on: Saccharomyces cerevisiae; assay: Ability to inhibit cell proliferation of Saccharomyces cerevisiae strain BY4741; assay type: functional, organism-based

Cyclin-dependent kinase 1, sequence (P00546 whole entry): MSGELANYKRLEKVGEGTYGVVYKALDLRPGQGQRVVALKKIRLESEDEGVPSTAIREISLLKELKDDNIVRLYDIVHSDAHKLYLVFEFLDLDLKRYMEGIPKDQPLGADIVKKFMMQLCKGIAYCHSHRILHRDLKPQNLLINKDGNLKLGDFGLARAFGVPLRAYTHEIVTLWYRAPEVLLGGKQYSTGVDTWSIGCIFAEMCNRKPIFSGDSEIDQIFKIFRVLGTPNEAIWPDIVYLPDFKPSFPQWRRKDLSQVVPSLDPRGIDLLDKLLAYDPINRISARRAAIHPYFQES

With `C[C@@H]1C[C@H](C)C[C@H](C)[C@@H](O)CC(=O)O[C@H]([C@@H]2CCC[C@H]2C(=O)O)C/C=C/C=C(/C#N)[C@H](O)[C@@H](C)C1` [BORRELIDIN] the IC50 [1] was 24 µM, the Inhibition [2] was 75% and the IC50 [3] was 23 µM.

From ChEMBL document CHEMBL1136091, “Borrelidin induces the transcription of amino acid biosynthetic enzymes via a GCN4-dependent pathway” (Bioorg Med Chem Lett, 2003)
